For data set [1], the system named is Human immunodeficiency virus 1. Briefly: Antiviral activity against Human immunodeficiency virus 1 BAL infected in human PBMC assessed as inhibition of viral replication by p24 antigen specific ELISA. In kind it is functional, organism-based. For orientation: ELISA stands for enzyme-linked immunosorbent assay.
Data set [2] can be described thus: Cytotoxicity against human PBMC. In kind it is cell-based.
For data set [3], the target named is C-C chemokine receptor type 5 (Homo sapiens, UniProt P51681). Briefly: Displacement of […] from CCR5 expressed in HEK293F cells. The class given is cell-based.
Sequence of C-C chemokine receptor type 5 (P51681 whole entry): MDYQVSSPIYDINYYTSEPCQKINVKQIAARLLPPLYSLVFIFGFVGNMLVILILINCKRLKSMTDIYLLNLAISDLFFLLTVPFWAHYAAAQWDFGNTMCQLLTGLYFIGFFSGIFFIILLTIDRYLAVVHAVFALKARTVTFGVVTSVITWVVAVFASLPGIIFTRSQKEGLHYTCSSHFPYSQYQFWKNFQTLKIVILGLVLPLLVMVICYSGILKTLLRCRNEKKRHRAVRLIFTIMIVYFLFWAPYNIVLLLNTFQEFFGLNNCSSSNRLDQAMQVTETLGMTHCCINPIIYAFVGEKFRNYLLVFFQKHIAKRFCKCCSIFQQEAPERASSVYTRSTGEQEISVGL

As usually defined, the IC50 is the concentration that gives 50% inhibition. A word on the CC50: it is the concentration that lowers cell viability or growth by half. A lower CC50 goes with greater toxicity to the cells. For the compound `CC(CCNC(=O)c1c(Cl)cncc1Cl)N1CCC(C(Oc2cccc(C(=O)O)n2)c2ccc(C(F)(F)F)cc2)CC1` (mixture of isomers), in data set [1], the IC50 was > 28.7 µM. Besides, the CC50 in data set [2] came to 28.7 µM.
Turning to `CC(CCNC(=O)c1c(Cl)cncc1Cl)N1CCC(C(Oc2cccc(Cl)n2)c2ccc(OC(F)(F)F)cc2)CC1` (mixture of isomers), the IC50 in data set [1] was 0.002 µM; in data set [3] it was 0.03 µM. The compound also had a CC50 in data set [2] of 6 µM.
For `CC(CCNC(=O)c1c(Cl)cncc1Cl)N1CCC(C(Oc2cccnc2)c2ccc(Br)cc2)CC1` (mixture of isomers), in that order: 3.3 µM, 0.97 µM and 32.5 µM.
Consider `Cc1ccc(OC(c2ccc(Br)cc2)C2CCN(C(C)CCNC(=O)c3c(Cl)cncc3Cl)CC2)nc1` (mixture of isomers), for which the IC50 in data set [1] was > 1.29 µM; in data set [3], 3.8 µM. The CC50 in data set [2] came out at 32.2 µM.
In the case of `CC(CCNC(=O)c1c(Cl)cncc1Cl)N1CCC(C(Oc2ccccc2)c2ccc(C(F)(F)F)cc2)CC1` (mixture of isomers), the IC50 in data set [1] amounted to 1.27 µM; in data set [3], 0.05 µM. Further, in data set [2], it took 6.8 µM to reach half-maximal cytotoxicity (CC50).
As to `COC(=O)c1cccc(OC(c2ccc(C(F)(F)F)cc2)C2CCN(C(C)CCNC(=O)c3c(Cl)cncc3Cl)CC2)c1` (mixture of isomers), in data set [1], the IC50 is > 6.26 µM. The compound also returned a CC50 in data set [2] of 15.2 µM.
Turning to `CC(CCNC(=O)c1c(Cl)cncc1Cl)N1CCC(N(Cc2ccccc2)c2ccc(Br)cc2)CC1` (stereo not given), the IC50 came to 0.22 µM in data set [1] and 0.03 µM in data set [3]. In addition, the midpoint of cytotoxicity in data set [2], the CC50, lay at 4.28 µM.
As to `CC(CCNC(=O)c1c(Cl)cncc1Cl)N1CCC(C2(c3ccc(C(F)(F)F)cc3)Cc3ccccc3O2)CC1` (stereo not given), the IC50 turned out to be 0.22 µM in data set [1] and 0.04 µM in data set [3]. The same compound registered a cytotoxic concentration (CC50) in data set [2] of 33.8 µM.
On to `CC(CCNC(=O)c1c(Cl)cncc1Cl)N1CCC(C(Oc2ccccn2)c2ccc(Br)cc2)CC1` (mixture of isomers), for which the results for the IC50 in data set [1] and in data set [3] were 3.76 µM and 0.14 µM, respectively. Further, it took 33.7 µM to reach half-maximal cytotoxicity in data set [2] (CC50).
For `CC(CCNC(=O)c1c(Cl)cncc1Cl)N1CCC(C(Oc2cccc(Cl)n2)c2ccc(S(C)(=O)=O)cc2)CC1` (mixture of isomers), in that order: 0.004 µM, 0.01 µM and > 29.5 µM.
For `CCO/N=C(/c1ccc(Br)cc1)C1CCN(C(CC)CCNC(=O)c2c(C)cc[n+]([O-])c2C)CC1` (stereo not given), the IC50 in data set [1] was > 32.8 µM. The CC50 in data set [2] was > 178 µM.
With `CC(CCNC(=O)c1c(Cl)cncc1Cl)N1CCC(C(Oc2cccc(F)c2)c2ccc(C(F)(F)F)cc2)CC1` (mixture of isomers), the results for the IC50 in data set [1] and in data set [3] were 0.23 µM and 0.04 µM, respectively. In data set [2], this compound displayed a CC50 of 5.4 µM.
For `CC(CCNC(=O)c1c(Cl)cncc1Cl)N1CCC(C(Oc2cccc(C#N)c2)c2ccc(C(F)(F)F)cc2)CC1` (mixture of isomers), in that order: 0.48 µM, 0.05 µM and 15.7 µM.
Consider `CC(CCNC(=O)c1c(Cl)cncc1Cl)N1CCC(C(Oc2cccc(C#N)n2)c2ccc(C(F)(F)F)cc2)CC1` (mixture of isomers), for which the IC50 in data set [1] came to 0.009 µM; in data set [3], 0.04 µM. Moreover, in data set [2], the CC50 was determined as 15.7 µM.
On to `CC(CCNC(=O)c1c(Cl)cncc1Cl)N1CCC(C(Oc2ccccc2C(F)(F)F)c2ccc(C(F)(F)F)cc2)CC1` (mixture of isomers), for which the IC50 in data set [1] came out at 0.1 µM. In data set [2], this compound gave a CC50 of 12.5 µM.
As to `CC(CCNC(=O)c1c(Cl)cncc1Cl)N1CCC(C2(c3ccc(C(F)(F)F)cc3)Oc3ccccc3O2)CC1` (stereo not given), the IC50 in data set [1] came out at 0.01 µM; in data set [3], 0.03 µM. This compound gave a CC50 in data set [2] of 7.8 µM.
For `CC(CCNC(=O)c1c(Cl)cncc1Cl)N1CCC(C(Oc2ccccc2)c2ccc(Br)cc2)CC1` (stereo not given), in that order: > 1.3 µM, 0.13 µM and 31.7 µM.
As for `Cc1cccnc1OC(c1ccc(C(F)(F)F)cc1)C1CCN(C(C)CCNC(=O)c2c(Cl)cncc2Cl)CC1` (mixture of isomers), the IC50 is 2.95 µM in data set [1] and 0.06 µM in data set [3]. For the same compound, the CC50 in data set [2] was found to be 33 µM.
For `CCO/N=C(/c1ccc(Br)cc1)C1CCN(C(C)CCNC(=O)c2c(C)cc[n+]([O-])c2C)CC1` (stereo not given), in that order: 2.54 µM, 0.29 µM and > 178 µM.
For `Cc1cccnc1OC(c1ccc(Br)cc1)C1CCN(C(C)CCNC(=O)c2c(Cl)cncc2Cl)CC1` (mixture of isomers), in that order: 0.34 µM, 0.19 µM and 32.1 µM.
For `Cc1cccc(OC(c2ccc(Br)cc2)C2CCN(C(C)CCNC(=O)c3c(Cl)cncc3Cl)CC2)n1` (mixture of isomers), in that order: 1.55 µM, 0.22 µM and 6.5 µM.
Turning to `CCO/N=C(/c1ccc(Br)cc1)C1CCN(CCCNC(=O)c2c(C)cc[n+]([O-])c2C)CC1`, the IC50 in data set [1] is > 1.5 µM; in data set [3], 0.18 µM. This compound also displayed a CC50 in data set [2] of 7.5 µM.
Consider `CC(CCNC(=O)c1c(Cl)cncc1Cl)N1CCC(C(O)c2ccc(Br)cc2)CC1` (stereo not given), for which the values for the IC50 in data set [1] and in data set [3] were > 39.6 µM and 3.39 µM, respectively. In data set [2], this compound came in with a CC50 of 198 µM.
For `CCO/N=C(/c1ccc(Br)cc1)C1CCN(C(C)CCNC(=O)c2c(Cl)cncc2Cl)CC1` (stereo not given), in that order: > 6.7 µM, 0.13 µM and 33.8 µM.
With `CC(CCNC(=O)c1c(Cl)cncc1Cl)N1CCC(C(Oc2cc(Cl)ccn2)c2ccc(C(F)(F)F)cc2)CC1` (mixture of isomers), the IC50 amounted to 0.43 µM in data set [1] and 0.07 µM in data set [3]. Also, half-maximal cytotoxicity in data set [2] (CC50) was put at 4.26 µM.
Take `CCO/N=C(/c1ccc(Br)cc1)C1CCN(C(C)(C)CCNC(=O)c2c(Cl)cncc2Cl)CC1`: the half-maximal inhibitory concentration (IC50) is > 6.81 µM in data set [1] and 1.76 µM in data set [3]. In data set [2], this compound had a CC50 of 34 µM.
For `CCO/N=C(/c1ccc(Br)cc1)C1CCN(C2(CCNC(=O)c3c(Cl)cncc3Cl)CC2)CC1`, in that order: > 6.6 µM, 21.4 µM and 33 µM.
For `CC(CCNC(=O)c1c(Cl)cncc1Cl)N1CCC(C(Oc2ccccc2Cl)c2ccc(C(F)(F)F)cc2)CC1` (mixture of isomers), in that order: > 1.27 µM, 0.12 µM and 4.4 µM.
For `CC(CCNC(=O)c1c(Cl)cncc1Cl)N1CCC(C(Oc2ncccc2Cl)c2ccc(C(F)(F)F)cc2)CC1` (mixture of isomers), in that order: 0.08 µM, 0.14 µM and 16.7 µM.
Take `Cc1ccnc(OC(c2ccc(C(F)(F)F)cc2)C2CCN(C(C)CCNC(=O)c3c(Cl)cncc3Cl)CC2)c1` (mixture of isomers): the IC50 in data set [1] was > 6.72 µM; in data set [3], 0.05 µM. Further, it took 33.6 µM to reach half-maximal cytotoxicity in data set [2] (CC50).
For `CCO/N=C(/c1ccc(Br)cc1)C1CCN(C(C)CCN(C)C(=O)c2c(C)cc[n+]([O-])c2C)CC1` (stereo not given), in that order: > 36.5 µM, 5.62 µM and > 183 µM.
`CC(CCNC(=O)c1c(Cl)cncc1Cl)N1CCC(C(Oc2cccc(C(F)(F)F)n2)c2ccc(C(F)(F)F)cc2)CC1` (mixture of isomers): the figures for the IC50 in data set [1] and in data set [3] were 0.06 µM and 0.13 µM, respectively. In data set [2], this compound showed a CC50 of 13.5 µM.
For the compound `Cc1ccnc(OC(c2ccc(Br)cc2)C2CCN(C(C)CCNC(=O)c3c(Cl)cncc3Cl)CC2)c1` (mixture of isomers), the IC50 came out at 1.96 µM in data set [1] and 0.14 µM in data set [3]. Moreover, the CC50 in data set [2] was 32.5 µM.
For `CC(CCNC(=O)c1c(Cl)cncc1Cl)N1CCC(C(Oc2cccc(Cl)c2)c2ccc(C(F)(F)F)cc2)CC1` (mixture of isomers), in that order: 0.07 µM, 0.06 µM and 8.1 µM.
For `CC(CCNC(=O)c1c(Cl)cncc1Cl)N1CCC(C2=NOCc3cc(Br)ccc32)CC1` (stereo not given), in that order: > 7.4 µM, 12.3 µM and 185 µM.
For `CC(CCNC(=O)c1c(Cl)cncc1Cl)N1CCC(C(Oc2ccccc2C#N)c2ccc(C(F)(F)F)cc2)CC1` (mixture of isomers), in that order: 2.87 µM, 0.1 µM and 17 µM.
Consider `CC(CCNC(=O)c1c(Cl)cncc1Cl)N1CCC(C(Oc2ccncc2)c2ccc(Br)cc2)CC1` (mixture of isomers), for which the IC50 in data set [1] was > 0.24 µM. Moreover, the CC50 in data set [2] came to 31.2 µM.
In the case of `Cc1cccc(OC(c2ccc(C(F)(F)F)cc2)C2CCN(C(C)CCNC(=O)c3c(Cl)cncc3Cl)CC2)n1` (mixture of isomers), the IC50 in data set [1] stood at 0.17 µM; in data set [3] it was 0.04 µM. Half-maximal cytotoxicity in data set [2] (CC50) was put at 6.7 µM.
As to `COc1cccc(OC(c2ccc(C(F)(F)F)cc2)C2CCN(C(C)CCNC(=O)c3c(Cl)cncc3Cl)CC2)n1` (mixture of isomers), the IC50 in data set [1] was > 1.3 µM. Moreover, the midpoint of cytotoxicity in data set [2], the CC50, lay at 32.7 µM.
As for `CC(CCNC(=O)c1c(Cl)cncc1Cl)N1CCC(C(Oc2ccccn2)c2ccc(C(F)(F)F)cc2)CC1` (mixture of isomers), the IC50 in data set [1] was found to be 0.13 µM; in data set [3], 0.03 µM. The compound also registered a CC50 in data set [2] of 34.1 µM.
As for `CC(CCNC(=O)c1c(Cl)cncc1Cl)N1CCC(C(Oc2cccc(C(F)(F)F)c2)c2ccc(C(F)(F)F)cc2)CC1` (mixture of isomers), in data set [1], the IC50 is 0.03 µM. Also, the CC50 in data set [2] worked out at 7 µM.
Take `CC(CCNC(=O)c1c(Cl)cncc1Cl)N1CCC(C(Oc2ccc(C(F)(F)F)cc2)c2ccc(C(F)(F)F)cc2)CC1` (mixture of isomers): in data set [1], the IC50 was > 1.23 µM. In addition, the CC50 in data set [2] was 3.1 µM.
Consider `CCO/N=C(/c1ccc(Br)cc1)C1CCN(CCNC(=O)c2c(C)cc[n+]([O-])c2C)CC1`, for which the IC50 in data set [1] is > 39.2 µM. In data set [2], this compound returned a half-maximal cytotoxic concentration (CC50) of 196 µM.
With `COC(=O)c1cccc(OC(c2ccc(C(F)(F)F)cc2)C2CCN(C(C)CCNC(=O)c3c(Cl)cncc3Cl)CC2)n1` (mixture of isomers), the results for the IC50 in data set [1] and in data set [3] were 0.52 µM and 1.05 µM, respectively. This compound also had a CC50 in data set [2] of 14.6 µM.
Consider `CC(CCNC(=O)c1c(Cl)cncc1Cl)N1CCC(C(=O)c2ccc(Br)cc2)CC1` (stereo not given), for which, in data set [1], the IC50 was 32.6 µM. In data set [2], this compound showed a CC50 of 189 µM.

The values are drawn from ChEMBL document CHEMBL1759996, “Design and synthesis of pyridin-2-yloxymethylpiperidin-1-ylbutyl amide CCR5 antagonists that are potent inhibitors of M-tropic (R5) HIV-1 replication” (Bioorg Med Chem Lett, 2011).
